Assay [1] deals with human orexin 2 receptor (Homo sapiens (Human), UniProt O43614). Put plainly: Human orexin 2 receptor radioligand binding ([3H]-EMPA). The following applies: HEK293 stably expressing human orexin 2 receptor; [3H]-EMPA; apparent Ki; read-out: hOX2 Ki. As to the method:
After centrifugation (2K×G, 5 min at 4° C.), the supernatant was aspirated and the pellets frozen and stored at −80° C. […] Each cell pellet from a 15 cm plate was resuspended in 10 mL, stored on ice, and homogenized for 45 sec just prior to addition to the reactions. Competition binding experiments in 96 well polypropylene plates were performed using [^3H]-EMPA (Moraveck Corporation, specific activity=29.6 Ci/mmol), diluted to a 5 nM concentration in PBS (2 nM final concentration). […] The final concentration of DMSO in the reactions is equal to or less than 0.1%. Total and nonspecific binding was determined in the absence and presence of […]. The total volume of each reaction is 200 μL (20 μL of diluted compounds, 80 μL of [^3H]-EMPA diluted in PBS and 100 μL of the cell suspension).
The plates were washed 3 times by aspirating 30 ml PBS through the plates. Plates were dried in 55° C. oven for 60 min, scintillation fluid was added, and the radioactivity was counted on a Topcount (Packard).

Assay [2] deals with rat orexin 1 receptor (Rattus norvegicus, UniProt P56718). Description: Rat orexin 1 receptor radioligand binding. Particulars: HEK293 cells stably expressing rat orexin 1 receptor; apparent Ki; read-out: rOX1 Ki. As to the method:
After centrifugation (2K×G, 5 min at 4° C.), the supernatant was aspirated and the pellets frozen and stored at −80° C. […] Each cell pellet from a 15 cm plate was resuspended in 10 mL, stored on ice, and homogenized for 45 sec prior to addition to the reactions. Competition binding experiments in 96 well polypropylene plates were performed using [^3H]-(1-(5-(2-fluoro-phenyl)-2-methyl-thiazol-4-yl)-1-((S)-2-(5-phenyl-(1,3,4)oxadiazol-2-ylmethyl)-pyrrolidin-1-yl)-methanone) (Moraveck Corporation, specific activity=35.3 Ci/mmol), diluted to a 10 nM concentration in PBS (4 nM final). […] The final concentration of DMSO in the reactions is equal to or less than 0.1%. Total and nonspecific binding was determined in the absence and presence of 10 μM almorexant. The total volume of each reaction is 200 μL (20 μL of diluted compounds, 80 μL of [3H]-(1-(5-(2-fluoro-phenyl)-2-methyl-thiazol-4-yl)-1-((S)-2-(5-phenyl-(1,3,4)oxadiazol-2-ylmethyl)-pyrrolidin-1-yl)-methanone) diluted in PBS and 100 μL of the cell suspension). […] The plates were washed 3 times by aspirating 30 ml PBS through the plates. Plates were dried in 55° C. oven for 60 min, scintillation fluid was added, and the radioactivity was counted on a Topcount (Packard).

19 compounds from patent US9115117B2, “Substituted piperidine compounds and their use as orexin receptor modulators” (JANSSEN PHARMACEUTICA NV, priority 2013, dated 2015) can be followed below.

Chain of human orexin 2 receptor (O43614 whole entry): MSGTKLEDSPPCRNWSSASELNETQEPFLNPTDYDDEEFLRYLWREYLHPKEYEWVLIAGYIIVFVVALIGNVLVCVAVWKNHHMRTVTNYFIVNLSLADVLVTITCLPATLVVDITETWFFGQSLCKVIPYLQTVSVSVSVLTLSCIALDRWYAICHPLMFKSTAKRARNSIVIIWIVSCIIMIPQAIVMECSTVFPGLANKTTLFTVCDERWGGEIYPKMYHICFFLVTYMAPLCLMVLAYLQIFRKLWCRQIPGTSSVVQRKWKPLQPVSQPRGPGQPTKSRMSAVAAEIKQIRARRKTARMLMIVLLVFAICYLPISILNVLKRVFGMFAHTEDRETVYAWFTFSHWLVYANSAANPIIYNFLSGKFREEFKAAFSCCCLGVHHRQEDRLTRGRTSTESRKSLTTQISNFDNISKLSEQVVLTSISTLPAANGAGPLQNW

Take `COc1c(F)cccc1C(=O)N1CCC[C@@H](Nc2ccc(C(F)(F)F)cn2)[C@@H]1C` (racemic) [Example 28, (±)-trans-(3-fluoro-2-methoxyphenyl)(2-methyl-3-((5-(trifluoromethyl)pyridin-2-yl)amino)piperidin-1-yl)methanone]: the Ki in assay [1] was 3.9 µM; in assay [2], 0.496 µM. As to `C[C@H]1[C@H](Nc2ccccn2)CCCN1C(=O)c1ccccc1-n1nccn1` (racemic) [Example 36, (±)-trans-(2-(2H-1,2,3-triazol-2-yl)phenyl)(2-methyl-3-(pyridin-2-ylamino)piperidin-1-yl)methanone], the values for the Ki in assay [1] and in assay [2] were 1.5 µM and 0.69 µM, respectively. With `C[C@H]1[C@H](Nc2ncc(F)cn2)CCCN1C(=O)c1ccccc1-n1nccn1` (racemic) [Example 40, (±)-trans-(2-(2H-1,2,3-triazol-2-yl)phenyl)(3-((5-fluoropyrimidin-2-yl)amino)-2-methylpiperidin-1-yl)methanone], the values for the Ki in assay [1] and in assay [2] were 0.822 µM and 0.87 µM, respectively. In the case of `COc1c(F)cccc1C(=O)N1CCC[C@@H](Nc2nc3cc(Cl)ccc3o2)[C@@H]1C` (racemic) [Example 47, (±)-trans-(3-((5-chlorobenzo[d]oxazol-2-yl)amino)-2-methylpiperidin-1-yl)(3-fluoro-2-methoxyphenyl)methanone], the Ki in assay [1] came to 1.3 µM; in assay [2], 0.373 µM. Take `COc1c(F)cccc1C(=O)N1CCC[C@@H](Nc2cnc3ccccc3n2)[C@@H]1C` (racemic) [Example 50, (±)-trans-(3-fluoro-2-methoxyphenyl)(2-methyl-3-(quinoxalin-2-ylamino)piperidin-1-yl)methanone]: the Ki in assay [1] was 0.353 µM; in assay [2] it was 0.396 µM. For the compound `COc1c(F)cccc1C(=O)N1CCC[C@@H](Nc2ccc(C(F)(F)F)cn2)[C@H]1C` (racemic) [Example 54, (±)-cis-(3-fluoro-2-methoxyphenyl)(2-methyl-3-((5-(trifluoromethyl)pyridin-2-yl)amino)piperidin-1-yl)methanone], the Ki is above 10 µM in assay [1] and 4.5 µM in assay [2].

With `CCOc1ccccc1C(=O)N1CCC[C@@H](Nc2ccc(C(F)(F)F)cn2)[C@H]1C` (racemic) [Example 55, (±)-cis-(2-ethoxyphenyl)(2-methyl-3-((5-(trifluoromethyl)pyridin-2-yl)amino)piperidin-1-yl)methanone], the Ki in assay [1] is above 10 µM; in assay [2] it was 1.2 µM.

Take `CCOc1ccccc1C(=O)N1CCC[C@@H](Nc2ccc(Br)cn2)[C@H]1C` (racemic) [Example 59, (±)-cis-(3-(5-bromopyridin-2-yl)amino)-2-methylpiperidin-1-yl)(2-ethoxyphenyl)methanone]: the Ki in assay [1] was above 10 µM; in assay [2] it was 1.8 µM. On the same counts, the results for `C[C@@H]1[C@H](Nc2nc3cc(Cl)ccc3o2)CCCN1C(=O)c1ccccc1-n1nccn1` (racemic) [Example 60, (±)-cis-((2-(2H-1,2,3-triazol-2-yl)phenyl)(3-((5-chlorobenzo[d]oxazol-2-yl)amino)-2-methylpiperidin-1-yl)methanone] are above 10 µM and above 10 µM. As to `CCOc1ccccc1C(=O)N1CCC[C@@H](Nc2nc3cc(Cl)ccc3o2)[C@H]1C` (racemic) [Example 61, (±)-cis-(3-((5-chlorobenzo[d]oxazol-2-yl)amino)-2-methylpiperidin-1-yl)(2-ethoxyphenyl)methanone], the Ki in assay [1] is 2.5 µM.

`COc1c(F)cccc1C(=O)N1CCC[C@@H](Nc2nc3cc(Cl)ccc3o2)[C@H]1C` (racemic) [Example 62, (±)-cis-(3-((5-chlorobenzo[d]oxazol-2-yl)amino)-2-methylpiperidin-1-yl)(3-fluoro-2-methoxyphenyl)methanone]: the Ki in assay [1] worked out at 5.7 µM; in assay [2], 1.8 µM.

With `C[C@@H]1[C@H](Nc2cnc3ccccc3n2)CCCN1C(=O)c1ccccc1-n1nccn1` (racemic) [Example 63, (±)-cis-(2-(2H-1,2,3-triazol-2-yl)phenyl)(2-methyl-3-(quinoxalin-2-ylamino)piperidin-1-yl)methanone], in assay [1], the Ki is above 10 µM.

For the compound `COc1c(F)cccc1C(=O)N1CCC[C@@H](Nc2cnc3ccccc3n2)[C@H]1C` (racemic) [Example 64, (±)-cis-(3-fluoro-2-methoxyphenyl)(2-methyl-3-(quinoxalin-2-ylamino)piperidin-1-yl)methanone], the Ki in assay [1] came out at 1.3 µM; in assay [2] it was 1.1 µM. Consider `C[C@@H]1[C@H](Nc2nccc(-c3ccccc3)n2)CCCN1C(=O)c1ccccc1-n1nccn1` (racemic) [Example 66, (±)-cis-(2-(2H-1,2,3-triazol-2-yl)phenyl)(2-methyl-3-((4-phenylpyrimidin-2-yl)amino)piperidin-1-yl)methanone], for which the Ki in assay [1] came out at 1.8 µM. Regarding `COc1c(F)cccc1C(=O)N1CCC[C@@H](Nc2nccc(-c3ccccc3)n2)[C@H]1C` (racemic) [Example 67, (±)-cis-(3-fluoro-2-methoxyphenyl)(2-methyl-3-((4-phenylpyrimidin-2-yl)amino)piperidin-1-yl)methanone], the Ki in assay [1] was above 10 µM. Turning to `CCOc1ccccc1C(=O)N1CCC[C@@H](Nc2nccc(-c3ccccc3)n2)[C@H]1C` (racemic) [Example 68, (±)-cis-(2-ethoxyphenyl)(2-methyl-3-((4-phenylpyrimidin-2-yl)amino)piperidin-1-yl)methanone], the Ki in assay [1] is above 10 µM. In the case of `Cc1ccc(C(=O)N2CCC[C@H](Nc3ccc(C(F)(F)F)cn3)[C@H]2C)c(-n2nccn2)c1` [Example 15, (4-methyl-2-(2H-1,2,3-triazol-2-yl)phenyl)((2R,3S)-2-methyl-3-((5-(trifluoromethyl)pyridin-2-yl)amino)piperidin-1-yl)methanone], the results for the Ki in assay [1] and in assay [2] were above 10 µM and 8.2 µM, respectively. On to `C[C@H]1[C@H](Nc2ccc(F)cn2)CCCN1C(=O)c1ccccc1-n1nccn1` [Example 34, (2-(2H-1,2,3-triazol-2-yl)phenyl)((2S,3R)-3-((5-fluoropyridin-2-yl)amino)-2-methylpiperidin-1-yl)methanone], for which the figures for the Ki in assay [1] and in assay [2] were 0.7 µM and 0.355 µM, respectively. In the case of `C[C@H]1[C@H](Nc2ccc(Cl)cn2)CCCN1C(=O)c1ccccc1-n1nccn1` [Example 100, (2-(2H-1,2,3-triazol-2-yl)phenyl)((2S,3R)-3-((5-chloropyridin-2-yl)amino)-2-methylpiperidin-1-yl)methanone], the Ki in assay [1] was 0.207 µM.
